Results published in patent publication US20240287082A1, “NEW BENZODIAZEPINE DERIVATIVES AS GABA A GAMMA1 PAM” (Hoffmann-La Roche Inc., priority 2021, published 2024).
Like-named read-outs stand apart in the source and are kept apart here.

Key:
[1] = target: human GABAA α5β2γ1 receptor (Homo sapiens (Human), UniProt P31644+Q8N1C3); assay: Radioligand binding assay, competition for [3H]RO7239181, γ1-containing GABAA subtype α5β2γ1
Experimental: The affinity of compounds at GABAA γ1 subunit-containing receptors was measured by competition for [^3H]RO7239181 (67.3 Ci/mmol; Roche) binding to membranes from HEK293F cells (ThermoFisher R^79007) expressing human (transiently transfected) receptors of composition α5β2γ1, α2β2γ1, α1β2γ1. For better protein expression of the α2 subunit-containing receptors, the 28 amino acid long signal peptide (Met1 to Ala28)of the human GABAA α2 subunit was substituted by the 31 amino acid long signal peptide (Met1 to Ser31) of human GABAA α5 subunit.
(§1) Harvested pellets from HEK293F cells expressing the different GABAA receptor subtypes were resuspended in Mannitol Buffer pH 7.2-7.4 (Mannitol 0.29M, Triethylamine 10 mM, Acetic acid 10 mM, EDTA 1 mM plus protease inhibitors (20 tablets Complete, Roche Diagnostics Cat. No. 05 056 489 001 per liter)), washed two times and then resuspended at 1:10 to 1:15 dilution in the same buffer. Cell disruption was performed by stirring the suspension in a Parr vessel #4637 at 435 psi for 15 minutes, and then the suspensions were centrifuged at 1000×g for 15 minutes at 4° C. (Beckman Avanti J-HC: rotor JS-4.2). The supernatant (S1) was transferred in a 21 Schott flask and the pellet (P1) was resuspended with Mannitol Buffer up to 175 ml. The resuspended pellet was transferred into a 250 ml Corning centrifugal beaker and centrifuged at 1500×g for 10 minutes at 4° C. (Beckman Avanti J-HC: rotor JS-4.2). The supernatant (S1) was then transferred in the 21 Schott flask and the pellet was discarded. The supernatants (S1) were centrifuged in 500 ml Beckman polypropylene centrifugal beaker at 15 000×g for 30 minutes at 4° C. (Beckman Avanti J-20 XP: rotor JLA-10.500). The pellet (P2) was resuspended with Mannitol Buffer 1:1 and frozen at −80° C. The supernatant (S2) was centrifuged in 100 ml Beckman polypropylene centrifugal tubes at 48000×g for 50 minutes at 4° C. (Beckman Avanti J-20 XP: rotor JA-18). The supernatant (S3) was discarded and the pellet (P3) was resuspended with 1:1 Mannitol Buffer. The P2 and P3 protein concentration was determined with the BIORAD Standard assay method with bovine serum albumin as standard and measured on the NANO-Drop 1000. The membrane suspension was aliquots (500 μl per tube) and stored at −80° C. until required.
(§2) Membrane homogenates were resuspended and polytronised (Polytron PT1200E Kinematica AG) in Potassium Phosphate 10 mM, KCl 100 mM binding buffer at pH 7.4 to a final assay concentration determined with a previous experiment.
Radioligand binding assays were carried out in a volume of 200 μL (96-well plates) which contained 100 μL of cell membranes, [3H]RO7239181 at a concentration of 1.5 nM (α5β2γ1) or 20-30 nM (α1β2γ1, α2β2γ1) and the test compound in the range of [0.3-1000]×10^−9 M. Nonspecific binding was defined by 10×10^−6 (α5β2γ1) and 30×10^−6 M RO7239181 and typically represented less than 5% (α5β2γ1) and less than 20% (α1β2γ1, α2β2γ1) of the total binding. Assays were incubated to equilibrium for 1 hour at 4° C. and then, membranes were filtered onto unifilter (96-well white microplate with bonded GF/C filters preincubated 20-50 minutes in 0.3% Polyethylenimine) with a Filtermate 196 harvester (Packard BioScience) and washed 4 times with cold Potassium Phosphate 10 mM pH 7.4, KCl 100 mM binding buffer. After anhydrousing, filter-retained radioactivity was detected by liquid scintillation counting. Ki values were calculated using Excel-Fit (Microsoft) and are the means of two determinations.

[2] = target: human GABAA α1β2γ1 receptor (Homo sapiens (Human), UniProt P14867+Q8N1C3); assay: Radioligand binding assay, competition for [3H]RO7239181, γ1-containing GABAA subtype α1β2γ1; conditions: membranes of HEK293F cells, [3H]RO7239181 20-30 nM, mean of two determinations
Experimental: The affinity of compounds at GABAA γ1 subunit-containing receptors was measured by competition for [^3H]RO7239181 (67.3 Ci/mmol; Roche) binding to membranes from HEK293F cells (ThermoFisher R^79007) expressing human (transiently transfected) receptors of composition α5β2γ1, α2β2γ1, α1β2γ1.
as §1, §2
Assays were incubated to equilibrium for 1 hour at 4° C. and then, membranes were filtered onto unifilter (96-well white microplate with bonded GF/C filters preincubated 20-50 minutes in 0.3% Polyethylenimine) with a Filtermate 196 harvester (Packard BioScience) and washed 4 times with cold Potassium Phosphate 10 mM pH 7.4, KCl 100 mM binding buffer. After anhydrousing, filter-retained radioactivity was detected by liquid scintillation counting. Ki values were calculated using Excel-Fit (Microsoft) and are the means of two determinations.

[3] = membranes of HEK293F cells, [3H]RO7239181 1.5 nM, mean of two determinations, read-out: Ki h-GABAA α5β2γ1

## CCOCCc1cn2c(nc1=O)CN=C(c1c(F)cccc1F)c1c-2ccc(Cl)c1Cl [Example 24, 8,9-dichloro-7-(2,6-difluorophenyl)-2-(2-ethoxyethyl)-5H-pyrimido[1,2-a][1,4]benzodiazepin-3-one]
[1]; [3]
  Ki: 3 nM

## O=c1ccn2c(n1)CN=C(c1c(F)cccc1F)c1c-2ccc(Cl)c1Cl [Example 2, 8,9-dichloro-7-(2,6-difluorophenyl)-5H-pyrimido[1,2-a][1,4]benzodiazepin-3-one]
[2]
  Ki: 8.6 nM
[1]
  Ki: 1.1 nM

## CCOCCc1cn2c(nc1=O)[C@H](C)N=C(c1c(F)cccc1F)c1c-2ccc(Cl)c1Cl [Example 21, (5S)-8,9-dichloro-7-(2,6-difluorophenyl)-2-(2-ethoxyethyl)-5-methyl-5H-pyrimido[1,2-a][1,4]benzodiazepin-3-one]
[1]; [3]
  Ki: 3.4 nM

## CCc1cn2c(nc1=O)[C@H](C)N=C(c1c(F)cccc1F)c1c-2ccc(C(F)(F)F)c1Cl [Example 11, (5S)-8-chloro-7-(2,6-difluorophenyl)-2-ethyl-5-methyl-9-(trifluoromethyl)-5H-pyrimido[1,2-a][1,4]benzodiazepin-3-one]
[2]
  Ki: 167 nM
[1]
  Ki: 4.1 nM

## CCO/C=C/c1cn2c(nc1=O)CN=C(c1c(F)cccc1F)c1c-2ccc(C(F)(F)F)c1Cl [Example 25, 8-chloro-7-(2,6-difluorophenyl)-2-[(E)-2-ethoxyvinyl]-9-(trifluoromethyl)-5H-pyrimido[1,2-a][1,4]benzodiazepin-3-one]
[1]; [3]
  Ki: 9.4 nM

## CCO/C=C/c1cn2c(nc1=O)[C@H](C)N=C(c1c(F)cccc1F)c1c-2ccc(Cl)c1Cl [Example 19, (5S)-8,9-dichloro-7-(2,6-difluorophenyl)-2-[(E)-2-ethoxyvinyl]-5-methyl-5H-pyrimido[1,2-a][1,4]benzodiazepin-3-one]
[1]; [3]
  Ki: 4.9 nM

## CCO/C=C/c1cn2c(nc1=O)CN=C(c1c(F)cccc1F)c1c-2ccc(Cl)c1Cl [Example 22, 8,9-dichloro-7-(2,6-difluorophenyl)-2-[(E)-2-ethoxyvinyl]-5H-pyrimido[1,2-a][1,4]benzodiazepin-3-one]
[1]; [3]
  Ki: 2.1 nM

## CNC(=O)c1cn2c(nc1=O)[C@H](C)N=C(c1c(F)cccc1F)c1c-2ccc(C(F)(F)F)c1Cl [Example 27, (5S)-8-chloro-7-(2,6-difluorophenyl)-N,5-dimethyl-3-oxo-9-(trifluoromethyl)-5H-pyrimido[1,2-a][1,4]benzodiazepine-2-carboxamide]
[2]
  Ki: 67.8 nM
[1]; [3]
  Ki: 6.2 nM

## C[C@@H]1N=C(c2c(F)cccc2F)c2c(ccc(Cl)c2Cl)-n2ccc(=O)nc21 [Example 4, (5S)-8,9-dichloro-7-(2,6-difluorophenyl)-5-methyl-5H-pyrimido[1,2-a][1,4]benzodiazepin-3-one]
[2]
  Ki: 25.6 nM
[1]
  Ki: 1.5 nM

## CCOCCc1cn2c(nc1=O)CN=C(c1c(F)cccc1F)c1c-2ccc(C(F)(F)F)c1Cl [Example 26, 8-chloro-7-(2,6-difluorophenyl)-2-(2-ethoxyethyl)-9-(trifluoromethyl)-5H-pyrimido[1,2-a][1,4]benzodiazepin-3-one]
[1]; [3]
  Ki: 21.6 nM

## O=c1ccn2c(n1)CN=C(c1ncccc1F)c1c-2ccc(Cl)c1Cl [Example 3, 8,9-dichloro-7-(3-fluoro-2-pyridyl)-5H-pyrimido[1,2-a][1,4]benzodiazepin-3-one]
[2]
  Ki: 183 nM
[1]
  Ki: 10.3 nM

## C[C@@H]1N=C(c2c(F)cccc2F)c2c(ccc(C(F)(F)F)c2Cl)-n2ccc(=O)nc21 [Example 10, (5S)-8-chloro-7-(2,6-difluorophenyl)-5-methyl-9-(trifluoromethyl)-5H-pyrimido[1,2-a][1,4]benzodiazepin-3-one]
[2]
  Ki: 159 nM
[1]
  Ki: 3 nM

## C[C@@H]1N=C(c2c(F)cccc2F)c2c(ccc(C(F)(F)F)c2Cl)-n2cc(C(=O)NC3CC3)c(=O)nc21 [Example 28, (5S)-8-chloro-N-cyclopropyl-7-(2,6-difluorophenyl)-5-methyl-3-oxo-9-(trifluoromethyl)-5H-pyrimido[1,2-a][1,4]benzodiazepine-2-carboxamide]
[1]; [3]
  Ki: 7.4 nM

## O=c1ccn2c(n1)CN=C(c1ccccc1F)c1c-2ccc(Cl)c1Cl [Example 1, 8,9-dichloro-7-(2-fluorophenyl)-5H-pyrimido[1,2-a][1,4]benzodiazepin-3-one]
[2]
  Ki: 63.4 nM
[1]
  Ki: 3.8 nM

## CCOCCc1cn2c(nc1=O)[C@H](C)N=C(c1c(F)cccc1F)c1c-2ccc(C(F)(F)F)c1Cl [Example 20, (5S)-8-chloro-7-(2,6-difluorophenyl)-2-(2-ethoxyethyl)-5-methyl-9-(trifluoromethyl)-5H-pyrimido[1,2-a][1,4]benzodiazepin-3-one]
[1]; [3]
  Ki: 6.6 nM

## Cc1cn2c(nc1=O)[C@H](C)N=C(c1c(F)cccc1F)c1c-2ccc(C(F)(F)F)c1Cl [Example 9, (5S)-8-chloro-7-(2,6-difluorophenyl)-2,5-dimethyl-9-(trifluoromethyl)-5H-pyrimido[1,2-a][1,4]benzodiazepin-3-one]
[2]
  Ki: 98.1 nM
[1]
  Ki: 3.1 nM

## C[C@@H]1N=C(c2c(F)cccc2F)c2c(ccc(Br)c2Cl)-n2ccc(=O)nc21 [Example 13, (5S)-9-bromo-8-chloro-7-(2,6-difluorophenyl)-5-methyl-5H-pyrimido[1,2-a][1,4]benzodiazepin-3-one]
[2]
  Ki: 17.6 nM
[1]
  Ki: 1 nM

## CCO/C=C/c1cn2c(nc1=O)[C@H](C)N=C(c1c(F)cccc1F)c1c-2ccc(C(F)(F)F)c1Cl [Example 18, (5S)-8-chloro-7-(2,6-difluorophenyl)-2-[(E)-2-ethoxyvinyl]-5-methyl-9-(trifluoromethyl)-5H-pyrimido[1,2-a][1,4]benzodiazepin-3-one]
[1]; [3]
  Ki: 9.7 nM
